Source: ChEMBL document CHEMBL2157957, “Strategies to mitigate the bioactivation of 2-anilino-7-aryl-pyrrolo[2,1-f][1,2,4]triazines: identification of orally bioavailable, efficacious ALK inhibitors” (J Med Chem, 2012)

What was measured:
[1] = molecular target: ALK tyrosine kinase receptor (Homo sapiens, UniProt Q9UM73); assay: Inhibition of GST-tagged human ALK cytoplasmic domain (1058-1620) expressed in Sf21 insect cells using GST-tagged human recombinant PLC-gamma/substrate by ELISA
[2] = Half life in human liver microsomes at 0.5 uM preincubated for 10 mins before NADPH and UDPGA challenge; format: ADME, Microsome
[3] = Half life in Sprague-Dawley rat liver microsomes at 0.5 uM preincubated for 10 mins before NADPH and UDPGA challenge; format: ADME, Microsome
[4] = molecular target: NPM/ALK (Nucleophosmin/ALK tyrosine kinase receptor) (Homo sapiens, UniProt Q9UM73); assay: Inhibition of human NPM-ALK phosphorylation using 4-MeUP substrate by cell based assay
[5] = Half life in monkey liver microsomes at 0.5 uM preincubated for 10 mins before NADPH and UDPGA challenge; format: ADME, Macaca mulatta, Microsome; details: rhesus monkey
[6] = Half life in CD1 mouse liver microsomes at 0.5 uM preincubated for 10 mins before NADPH and UDPGA challenge; format: ADME, Microsome
[7] = Oral bioavailability in Sprague-Dawley rat at 5 mg/kg; format: ADME, organism-based; details: in vivo
[8] = Half life in rat liver S9 fraction; format: ADME, subcellular
[9] = AUC (0 to t) in Sprague-Dawley rat at 5 mg/kg, po; format: ADME, organism-based; parameters: dose 5 mg/kg, route oral; details: plasma
[10] = Clearance in Sprague-Dawley rat at 1 mg/kg, iv; format: ADME, organism-based; parameters: dose 1 mg/kg, route intravenous; details: in vivo
[11] = Half life in Sprague-Dawley rat at 1 mg/kg, iv; format: ADME, organism-based; parameters: dose 1 mg/kg, route intravenous; details: in vivo
Insulin receptor = Insulin receptor (Homo sapiens, UniProt P06213); assay: Inhibition of IR
Sequence of Insulin receptor (P06213 28-758 limits assumed): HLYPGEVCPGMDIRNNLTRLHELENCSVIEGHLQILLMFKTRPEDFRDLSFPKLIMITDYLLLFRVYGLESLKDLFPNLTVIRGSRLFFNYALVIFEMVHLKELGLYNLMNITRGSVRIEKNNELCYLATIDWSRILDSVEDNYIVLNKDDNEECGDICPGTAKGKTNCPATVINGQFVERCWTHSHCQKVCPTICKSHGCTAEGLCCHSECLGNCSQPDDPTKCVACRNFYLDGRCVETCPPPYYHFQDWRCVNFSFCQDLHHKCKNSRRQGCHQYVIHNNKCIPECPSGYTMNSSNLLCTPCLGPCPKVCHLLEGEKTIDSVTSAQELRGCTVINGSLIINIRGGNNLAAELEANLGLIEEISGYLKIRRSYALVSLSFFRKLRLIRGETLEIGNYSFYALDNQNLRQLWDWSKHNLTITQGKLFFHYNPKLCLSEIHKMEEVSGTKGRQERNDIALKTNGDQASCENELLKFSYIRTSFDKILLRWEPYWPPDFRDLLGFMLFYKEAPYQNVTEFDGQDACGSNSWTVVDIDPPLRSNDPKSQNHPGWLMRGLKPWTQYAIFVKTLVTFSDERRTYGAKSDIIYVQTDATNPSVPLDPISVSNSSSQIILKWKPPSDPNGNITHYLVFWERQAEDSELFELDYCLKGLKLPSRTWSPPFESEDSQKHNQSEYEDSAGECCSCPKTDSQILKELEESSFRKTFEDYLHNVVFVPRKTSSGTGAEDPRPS
Sequence of Insulin receptor (P06213 763-1382 limits assumed): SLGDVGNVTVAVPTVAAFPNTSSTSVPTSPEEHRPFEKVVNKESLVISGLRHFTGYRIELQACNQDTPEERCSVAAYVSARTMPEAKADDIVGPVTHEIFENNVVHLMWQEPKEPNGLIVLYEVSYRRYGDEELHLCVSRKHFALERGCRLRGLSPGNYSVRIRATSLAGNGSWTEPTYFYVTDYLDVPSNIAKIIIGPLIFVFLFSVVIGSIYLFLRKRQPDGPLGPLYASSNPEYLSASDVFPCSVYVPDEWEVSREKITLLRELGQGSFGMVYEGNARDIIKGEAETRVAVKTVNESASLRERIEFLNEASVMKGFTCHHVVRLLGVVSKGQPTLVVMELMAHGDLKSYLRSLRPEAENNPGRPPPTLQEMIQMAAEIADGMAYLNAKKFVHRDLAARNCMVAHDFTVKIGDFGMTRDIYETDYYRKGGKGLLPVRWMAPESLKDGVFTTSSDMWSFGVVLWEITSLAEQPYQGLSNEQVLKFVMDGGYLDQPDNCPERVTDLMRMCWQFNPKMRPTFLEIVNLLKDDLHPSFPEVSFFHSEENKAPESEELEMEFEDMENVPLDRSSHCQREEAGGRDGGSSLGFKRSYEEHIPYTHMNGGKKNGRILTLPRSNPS

Sequence of ALK tyrosine kinase receptor (Q9UM73 whole entry, the tested form may be a part): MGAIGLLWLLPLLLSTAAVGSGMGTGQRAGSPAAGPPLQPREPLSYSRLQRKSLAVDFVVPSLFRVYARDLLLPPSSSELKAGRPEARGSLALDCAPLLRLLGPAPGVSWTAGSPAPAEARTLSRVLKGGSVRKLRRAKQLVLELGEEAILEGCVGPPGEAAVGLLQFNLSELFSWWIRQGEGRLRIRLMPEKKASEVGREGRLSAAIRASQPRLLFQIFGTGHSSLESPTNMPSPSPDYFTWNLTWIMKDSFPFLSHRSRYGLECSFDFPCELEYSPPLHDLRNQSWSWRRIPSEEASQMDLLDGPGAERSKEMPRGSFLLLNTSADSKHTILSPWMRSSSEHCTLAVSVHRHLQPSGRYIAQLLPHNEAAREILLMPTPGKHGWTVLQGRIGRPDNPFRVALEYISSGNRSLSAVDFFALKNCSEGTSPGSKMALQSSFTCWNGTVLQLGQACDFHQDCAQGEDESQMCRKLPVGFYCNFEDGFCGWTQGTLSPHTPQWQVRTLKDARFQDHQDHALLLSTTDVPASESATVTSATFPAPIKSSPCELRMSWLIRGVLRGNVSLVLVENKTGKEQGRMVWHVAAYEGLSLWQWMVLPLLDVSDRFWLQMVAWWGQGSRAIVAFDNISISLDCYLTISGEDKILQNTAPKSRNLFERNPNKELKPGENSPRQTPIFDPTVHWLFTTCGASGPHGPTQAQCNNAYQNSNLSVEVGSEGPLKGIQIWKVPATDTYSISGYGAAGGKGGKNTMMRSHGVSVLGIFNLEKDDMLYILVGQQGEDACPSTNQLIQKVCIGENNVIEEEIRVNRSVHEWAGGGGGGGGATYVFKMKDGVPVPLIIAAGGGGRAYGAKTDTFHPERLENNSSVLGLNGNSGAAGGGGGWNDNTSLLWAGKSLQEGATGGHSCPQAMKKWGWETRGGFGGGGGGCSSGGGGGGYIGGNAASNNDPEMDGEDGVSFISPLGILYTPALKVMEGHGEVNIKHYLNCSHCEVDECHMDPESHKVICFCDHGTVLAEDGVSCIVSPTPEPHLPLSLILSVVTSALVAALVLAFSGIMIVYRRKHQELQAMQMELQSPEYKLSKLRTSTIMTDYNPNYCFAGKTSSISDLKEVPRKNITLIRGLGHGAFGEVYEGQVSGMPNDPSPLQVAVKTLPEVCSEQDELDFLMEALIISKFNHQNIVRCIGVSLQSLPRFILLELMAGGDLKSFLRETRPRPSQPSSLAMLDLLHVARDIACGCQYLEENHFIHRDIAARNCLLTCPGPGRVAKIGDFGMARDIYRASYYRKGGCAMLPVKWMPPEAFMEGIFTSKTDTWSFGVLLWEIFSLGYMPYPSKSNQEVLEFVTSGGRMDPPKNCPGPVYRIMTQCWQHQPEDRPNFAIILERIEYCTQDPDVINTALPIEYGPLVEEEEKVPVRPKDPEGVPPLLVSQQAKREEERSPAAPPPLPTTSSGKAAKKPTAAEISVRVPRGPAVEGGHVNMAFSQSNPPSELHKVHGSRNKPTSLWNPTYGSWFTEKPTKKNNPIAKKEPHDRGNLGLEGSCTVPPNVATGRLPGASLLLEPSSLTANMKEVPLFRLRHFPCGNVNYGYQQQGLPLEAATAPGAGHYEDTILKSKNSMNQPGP
Sequence of NPM/ALK (Nucleophosmin/ALK tyrosine kinase receptor) (Q9UM73 whole entry): as the sequence (Q9UM73 whole entry, the tested form may be a part) above
Sequence of NPM/ALK (Nucleophosmin/ALK tyrosine kinase receptor) (P06748 whole entry, further chain): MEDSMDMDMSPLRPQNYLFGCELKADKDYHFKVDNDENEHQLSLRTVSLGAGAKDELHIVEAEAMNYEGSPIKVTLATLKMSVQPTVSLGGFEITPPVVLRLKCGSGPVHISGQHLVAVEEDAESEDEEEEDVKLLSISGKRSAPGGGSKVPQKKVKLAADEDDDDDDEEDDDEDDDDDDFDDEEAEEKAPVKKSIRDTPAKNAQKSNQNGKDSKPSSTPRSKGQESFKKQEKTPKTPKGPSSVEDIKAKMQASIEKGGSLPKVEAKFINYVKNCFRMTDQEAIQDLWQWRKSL

| SMILES | IC50 [1] [nM] | half-life at 0.5 µM [2] [min] | half-life at 0.5 µM [3] [min] | IC50 [4] [nM] | half-life at 0.5 µM [5] [min] | half-life at 0.5 µM [6] [min] | bioavailability [7] [%] | half-life [8] [min] | AUC(0-t) [9] [ng·h/mL] | clearance [10] [mL/min/kg] | half-life [11] [min] | IC50 (Insulin receptor) [nM] |
| --- | --- | --- | --- | --- | --- | --- | --- | --- | --- | --- | --- | --- |
| C[C@H](O)CN1CCN(c2cc(F)c(Nc3ncc4ccc(-c5ccccc5N(C)S(C)(=O)=O)n4n3)cc2F)CC1 | 91 | – | – | – | – | – | – | – | – | – | – | – |
| COc1ccc(N2CCN(C)CC2)cc1Nc1ncc2ccc(-c3ccccc3N(C)S(C)(=O)=O)n2n1 | 28 | – | – | – | – | – | – | – | – | – | – | – |
| COc1ccc(N2CCN(C)CC2)cc1Nc1ncc2ccc(-c3ccccc3OC)n2n1 | 187 | – | – | – | – | – | – | – | – | – | – | – |
| COc1cc(C2CCN(CCO)CC2)ccc1Nc1ncc2ccc(-c3ccccc3N(C)S(C)(=O)=O)n2n1 | 6 | < 5 | 21 | 60 | < 5 | > 40 | – | – | – | – | – | – |
| COc1cc(C2CCN(C[C@@H](C)O)CC2)ccc1Nc1ncc2ccc(-c3ccccc3N(C)S(C)(=O)=O)n2n1 | 6 | < 5 | 11 | 70 | < 5 | > 40 | – | – | – | – | – | – |
| COc1cc(C2CCNCC2)ccc1Nc1ncc2ccc(-c3ccccc3N(C)S(C)(=O)=O)n2n1 | 10 | 7 | 22 | 40 | < 5 | > 40 | – | – | – | – | – | – |
| COc1cc(C2CCN(C[C@@H](C)O)CC2)ccc1Nc1ncc2ccc(-c3ccccc3OC)n2n1 | 3.4 | > 40 | > 40 | 100 | 21 | > 40 | < 1 | > 40 | 11 | – | – | – |
| COc1cc(C2CCN(C)CC2)ccc1Nc1ncc2ccc(-c3ccccc3OC)n2n1 | 6 | – | – | 70 | – | – | 3 | – | – | 29 | 84 | 222 |
| COc1cc(C2CCN(C[C@H](O)CO)CC2)ccc1Nc1ncc2ccc(-c3ccccc3OC)n2n1 | 2.9 | – | > 40 | 30 | – | – | 15 | > 40 | – | 39 | 120 | 164 |
| COc1cc(C2CCN(C(=O)C(C)(C)N)CC2)ccc1Nc1ncc2ccc(-c3ccccc3OC)n2n1 | 7 | – | > 40 | 150 | – | – | 13 | > 40 | – | 25 | 156 | 579 |
| COc1cc(C2CCN(CC(O)CF)CC2)ccc1Nc1ncc2ccc(-c3ccccc3OC)n2n1 (racemic) | 3 | – | > 40 | 80 | – | – | 16 | > 40 | – | 62 | 84 | 149 |
| COc1cc(C2CCN(C(=O)C3CCN3)CC2)ccc1Nc1ncc2ccc(-c3ccccc3OC)n2n1 (racemic) | 11 | – | > 40 | 200 | – | – | 15 | > 40 | – | 32 | 150 | 335 |
